Data published in PubChem BioAssay AID330 (DTP/NCI, 2004).
“And” between values parts separate entries of the source, which are not always exact repeats. Equal entries are not always repeated. Toxic doses and inconclusive results are not listed.

Tested on: P388 leukemia ip, CD2F1 mice, survival T/C
Assay: NCI In Vivo Anticancer Drug Screen. Data for tumor model P388 Leukemia (intraperitoneal) in CD2F1 (CDF1) mice
Conditions: endpoint: median survival time, higher = longer survival
Outline: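 Mice carrying the transplanted tumor received test compound or vehicle. Survival was recorded in each group, and the value is the treated-group measurement divided by that of the vehicle-treated control group.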

[1] = dose: 25.0 mg/kg/injection, schedule: Q01DX009 (ip), vehicle: saline with Tween-80
[2] = dose: 50.0 mg/kg/injection, schedule: Q01DX009 (ip), vehicle: saline with Tween-80
[3] = dose: 200.0 mg/kg/injection, schedule: Q01DX009 (ip), vehicle: saline with Tween-80
[4] = dose: 60.0 mg/kg/injection, schedule: Q01DX005 (ip), vehicle: saline with Tween-80
[5] = dose: 120.0 mg/kg/injection, schedule: Q01DX005 (ip), vehicle: saline with Tween-80
[6] = dose: 50.0 mg/kg/injection, schedule: Q01DX005 (ip), vehicle: Klucel (hydroxypropylcellulose) (HPC)
[7] = dose: 100.0 mg/kg/injection, schedule: Q01DX005 (ip), vehicle: Klucel (hydroxypropylcellulose) (HPC)
[8] = dose: 200.0 mg/kg/injection, schedule: Q01DX005 (ip), vehicle: Klucel (hydroxypropylcellulose) (HPC)
[9] = dose: 50.0 mg/kg/injection, schedule: Q01DX009 (ip), vehicle: Klucel (hydroxypropylcellulose) (HPC)
[10] = dose: 100.0 mg/kg/injection, schedule: Q01DX009 (ip), vehicle: Klucel (hydroxypropylcellulose) (HPC)
[11] = dose: 12.5 mg/kg/injection, schedule: Q01DX009 (ip), vehicle: saline with Tween-80
[12] = dose: 240.0 mg/kg/injection, schedule: Q01DX005 (ip), vehicle: saline with Tween-80
[13] = dose: 12.5 mg/kg/injection, schedule: Q01DX009 (ip), vehicle: saline
[14] = dose: 25.0 mg/kg/injection, schedule: Q01DX009 (ip), vehicle: saline

Compound: CCCCNC(=O)OCc1c(COC(=O)NCCCC)c(-c2ccc(Cl)c(Cl)c2)n2c1CCC2
- T/C [1]: 153 % of control and 159 % of control
- T/C [2]: 150 % of control and 171 % of control
- T/C [3]: 163 % of control

Compound: N#C/C(=C\Nc1ccccn1)C(=O)c1ccco1
- T/C [4]: 91 % of control
- T/C [5]: 100 % of control

Compound: Oc1c(Br)cc(Br)cc1Oc1c(O)c(Br)c(Br)c(Br)c1Br
- T/C (dose: 6.25 mg/kg/injection, schedule: Q01DX005 (ip), vehicle: Klucel (hydroxypropylcellulose) (HPC)): 104 % of control
- T/C (dose: 12.5 mg/kg/injection, schedule: Q01DX005 (ip), vehicle: Klucel (hydroxypropylcellulose) (HPC)): 102 % of control
- T/C (dose: 25.0 mg/kg/injection, schedule: Q01DX005 (ip), vehicle: Klucel (hydroxypropylcellulose) (HPC)): 104 % of control
- T/C [6]: 100 % of control and 101 % of control
- T/C [7]: 100 % of control
- T/C [8]: 99 % of control

Compound: COc1cc2c(cc1OC)C(CCN1C(=O)CCC1=O)=NCC2
- T/C (dose: 50.0 mg/kg/injection, schedule: Q01DX009 (ip), vehicle: saline sonified): 100 % of control
- T/C (dose: 100.0 mg/kg/injection, schedule: Q01DX009 (ip), vehicle: saline sonified): 100 % of control
- T/C (dose: 200.0 mg/kg/injection, schedule: Q01DX009 (ip), vehicle: saline sonified): 95 % of control

Compound: COCC12CCC(OC)C34C5CC6(O)C(OC)C=C(C5C6OC(=O)c5ccccc5)C(C(OC)C13)C4N(C)C2 (configuration not stated)
- T/C (dose: 25.0 mg/kg/injection, schedule: Q01DX009 (ip), vehicle: Klucel (hydroxypropylcellulose) (HPC)): 100 % of control
- T/C [9]: 95 % of control
- T/C [10]: 100 % of control

Compound: C=C1C(=O)OC2CC(C)C3CC(O)OC(O)C3(C)CC12 (configuration not stated)
- T/C (dose: 1.56 mg/kg/injection, schedule: Q01DX009 (ip), vehicle: saline): 115 % of control
- T/C (dose: 3.12 mg/kg/injection, schedule: Q01DX009 (ip), vehicle: saline with Tween-80): 102 % of control
- T/C (dose: 3.13 mg/kg/injection, schedule: Q01DX009 (ip), vehicle: saline): 117 % of control
- T/C (dose: 6.25 mg/kg/injection, schedule: Q01DX009 (ip), vehicle: saline with Tween-80): 107 % of control
- T/C [11]: 99 % of control and 113 % of control

Compound: CCCCCCOCC(=O)OC
- T/C [2]: 103 % of control
- T/C (dose: 100.0 mg/kg/injection, schedule: Q01DX009 (ip), vehicle: saline with Tween-80): 102 % of control
- T/C [3]: 102 % of control

Compound: CCOCCC(N=NC(=S)NNC)c1ccccc1 (configuration not stated)
- T/C (dose: 100.0 mg/kg/injection, schedule: Q01DX001 (ip), vehicle: saline): 100 % of control
- T/C (dose: 200.0 mg/kg/injection, schedule: Q01DX001 (ip), vehicle: saline): 94 % of control
- T/C (dose: 400.0 mg/kg/injection, schedule: Q01DX001 (ip), vehicle: saline): 93 % of control

Compound: O=C(O)CSc1nc(-c2nc3ccccc3s2)cn1-c1ccc(F)cc1
- T/C [9]: 106 % of control
- T/C [10]: 106 % of control
- T/C (dose: 200.0 mg/kg/injection, schedule: Q01DX009 (ip), vehicle: Klucel (hydroxypropylcellulose) (HPC)): 100 % of control

Compound: CC(=O)OC1C2C3C2C2C1C32 (configuration not stated)
- T/C (dose: 100.0 mg/kg/injection, schedule: Q04DX002 (ip), vehicle: other): 113 % of control
- T/C (dose: 200.0 mg/kg/injection, schedule: Q04DX002 (ip), vehicle: other): 106 % of control
- T/C (dose: 400.0 mg/kg/injection, schedule: Q04DX002 (ip), vehicle: other): 103 % of control

Compound: O=C(CSc1nc2ccccc2[nH]1)NCCO
- T/C [4]: 98 % of control
- T/C [5]: 97 % of control
- T/C [12]: 100 % of control

Compound: Cc1ncc(CO)c(C2NC(C(=O)O)CS2)c1O (configuration not stated)
- T/C [4]: 98 % of control
- T/C [5]: 98 % of control
- T/C [12]: 100 % of control

Compound: O=C(/C=C/c1ccccc1[N+](=O)[O-])c1ccccc1
- T/C (dose: 50.0 mg/kg/injection, schedule: Q04DX003 (ip), vehicle: saline with Tween-80): 99 % of control
- T/C (dose: 100.0 mg/kg/injection, schedule: Q04DX003 (ip), vehicle: saline with Tween-80): 101 % of control
- T/C (dose: 200.0 mg/kg/injection, schedule: Q04DX003 (ip), vehicle: saline with Tween-80): 101 % of control
- T/C (dose: 400.0 mg/kg/injection, schedule: Q04DX003 (ip), vehicle: saline with Tween-80): 108 % of control

Compound: C#CCOC(=O)C(Cl)(Cl)Cl
- T/C (dose: 100.0 mg/kg/injection, schedule: Q04DX003 (ip), vehicle: saline): 107 % of control
- T/C (dose: 200.0 mg/kg/injection, schedule: Q04DX003 (ip), vehicle: saline): 115 % of control

Compound: O=C(NC1CC(c2ccccc2)(c2ccccc2)OC1=O)OCc1ccccc1 (configuration not stated)
- T/C [11]: 90 % of control
- T/C [1]: 93 % of control
- T/C [2]: 90 % of control and 93 % of control
- T/C [3]: 93 % of control

Compound: O=C(CC1(O)C(=O)Nc2ccccc21)c1ccc(Br)cc1 (configuration not stated)
- T/C (dose: 50.0 mg/kg/injection, schedule: Q01DX005 (ip), vehicle: saline with Tween-80): 108 % of control
- T/C (dose: 100.0 mg/kg/injection, schedule: Q01DX005 (ip), vehicle: saline with Tween-80): 103 % of control
- T/C (dose: 200.0 mg/kg/injection, schedule: Q01DX005 (ip), vehicle: saline with Tween-80): 100 % of control

Compound: Cc1cc(-c2ccc(N=Nc3ccc4c(S(=O)(=O)O)cc(S(=O)(=O)O)c(N)c4c3O)c(C)c2)ccc1N=Nc1ccc2c(S(=O)(=O)O)cc(S(=O)(=O)O)c(N)c2c1O
- T/C [13]: 116 % of control
- T/C [14]: 107 % of control

Compound: O=C(O)c1c[nH]c2c(ccc3[nH]cc(C(=O)O)c(=O)c32)c1=O
- T/C (dose: 60.0 mg/kg/injection, schedule: Q01DX005 (ip), vehicle: Klucel (hydroxypropylcellulose) (HPC)): 105 % of control
- T/C (dose: 120.0 mg/kg/injection, schedule: Q01DX005 (ip), vehicle: Klucel (hydroxypropylcellulose) (HPC)): 102 % of control
- T/C (dose: 240.0 mg/kg/injection, schedule: Q01DX005 (ip), vehicle: Klucel (hydroxypropylcellulose) (HPC)): 92 % of control

Compound: O=C1Oc2ccccc2[C@@H]2[C@H]1[C@@H]1C(=O)Oc3ccccc3[C@@H]12
- T/C [6]: 97 % of control
- T/C [7]: 97 % of control
- T/C [8]: 100 % of control

Compound: CC(Cc1ccccc1)C(=O)Nc1ccccc1 (configuration not stated)
- T/C (dose: 100.0 mg/kg/injection, schedule: Q04DX002 (ip), vehicle: saline with Tween-80): 91 % of control
- T/C (dose: 200.0 mg/kg/injection, schedule: Q04DX002 (ip), vehicle: saline with Tween-80): 94 % of control
- T/C (dose: 400.0 mg/kg/injection, schedule: Q04DX002 (ip), vehicle: saline with Tween-80): 91 % of control

Compound: COc1cccc(C[n+]2ccccc2C#N)c1
- T/C [13]: 100 % of control
- T/C [14]: 106 % of control
- T/C (dose: 50.0 mg/kg/injection, schedule: Q01DX009 (ip), vehicle: saline): 100 % of control and 96 % of control
